{"source": "ChEMBL document CHEMBL1201862", "about": "“PubChem BioAssay data set” (2004)", "key": {"[1]": {"assay": "T. cruzi growth inhibition in host cells, dose response, cell-based, plate reader, dry powder, set 2 (AID 652275)", "assay_type": "functional"}, "[2]": {"molecular_target": "Paired box protein Pax-8 (Homo sapiens, UniProt Q06710)", "sequence (Q06710 whole entry)": "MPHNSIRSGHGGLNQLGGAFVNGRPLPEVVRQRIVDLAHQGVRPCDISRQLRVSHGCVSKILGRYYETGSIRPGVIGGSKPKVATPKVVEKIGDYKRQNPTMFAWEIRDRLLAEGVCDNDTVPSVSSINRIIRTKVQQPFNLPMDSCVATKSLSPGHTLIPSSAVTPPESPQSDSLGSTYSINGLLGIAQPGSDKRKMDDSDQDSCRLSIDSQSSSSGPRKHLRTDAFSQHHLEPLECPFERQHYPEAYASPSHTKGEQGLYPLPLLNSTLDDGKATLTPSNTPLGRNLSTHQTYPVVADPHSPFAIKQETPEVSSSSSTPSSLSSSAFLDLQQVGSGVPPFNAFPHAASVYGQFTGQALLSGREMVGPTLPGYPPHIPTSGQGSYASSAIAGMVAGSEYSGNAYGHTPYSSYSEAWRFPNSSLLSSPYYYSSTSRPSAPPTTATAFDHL", "assay": "inhibitors of PAX8-driven TPO luciferase reporter, dose response, RMG-I cells, cherry-pick (AID 687027);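 note: luciferase reporter driven by Pax8 target thyroperoxidase promoter measured by SteadyGlo luminescence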", "assay_type": "functional, cell-based"}, "[3]": {"assay": "cytotoxicity in OVCAR8 ovarian cancer cells, dose response, PAX8 project, cell-based, plate reader, dry powder samples (AID 743197)", "assay_type": "functional", "conditions": "OVCAR-8"}, "[4]": {"assay": "NIH:OVCAR-3 ovarian cancer cell cytotoxicity, dose response, PAX8 inhibitor project, plate reader, dry powder samples (AID 743044)", "assay_type": "functional, cell-based"}, "[5]": {"assay": "IGROV1 ovarian cancer cell cytotoxicity, dose response, PAX8 inhibitor project, plate reader, dry powder samples (AID 743043)", "assay_type": "functional, cell-based", "conditions": "IGROV-1"}, "[6]": {"molecular_target": "Protein Wnt-3a (Mus musculus, UniProt P27467)", "sequence (P27467 whole entry)": "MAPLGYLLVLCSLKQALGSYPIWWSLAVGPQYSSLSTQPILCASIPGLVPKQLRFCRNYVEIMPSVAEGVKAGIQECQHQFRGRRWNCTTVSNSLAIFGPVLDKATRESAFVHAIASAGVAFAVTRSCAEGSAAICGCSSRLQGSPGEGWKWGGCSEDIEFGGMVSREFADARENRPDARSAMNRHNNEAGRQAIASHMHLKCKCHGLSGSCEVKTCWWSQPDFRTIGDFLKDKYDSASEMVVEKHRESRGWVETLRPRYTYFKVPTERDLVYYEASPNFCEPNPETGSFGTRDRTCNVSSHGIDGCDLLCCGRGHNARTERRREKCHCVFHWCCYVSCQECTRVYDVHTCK", "assay": "Wnt3a-driven reporter signaling inhibition, dose response, selectivity assay for Gli-SUFU antagonist project, Wnt-LIGHT cells, luminescence (AID 651570);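 note: Wnt-LIGHT reporter cells stimulated with conditioned medium from Wnt3a-producing cells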", "assay_type": "functional", "conditions": "read-out: IC50_Mean"}, "[7]": {"molecular_target": "Melanocortin receptor 4 (Homo sapiens, UniProt P32245)", "sequence (P32245 whole entry)": "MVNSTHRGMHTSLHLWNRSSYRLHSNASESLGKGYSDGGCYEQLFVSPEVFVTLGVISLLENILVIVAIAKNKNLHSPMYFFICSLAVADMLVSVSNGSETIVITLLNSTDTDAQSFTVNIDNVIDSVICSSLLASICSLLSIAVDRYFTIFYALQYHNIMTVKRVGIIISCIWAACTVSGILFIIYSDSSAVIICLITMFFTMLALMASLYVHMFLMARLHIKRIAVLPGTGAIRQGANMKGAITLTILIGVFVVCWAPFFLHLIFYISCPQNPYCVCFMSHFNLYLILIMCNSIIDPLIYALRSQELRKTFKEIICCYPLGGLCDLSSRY", "assay_type": "functional, cell-based"}, "[8]": {"molecular_target": "T1, Ubiquitin-conjugating enzyme E2 N (Homo sapiens, UniProt P61088)", "T1 sequence (P61088 whole entry)": "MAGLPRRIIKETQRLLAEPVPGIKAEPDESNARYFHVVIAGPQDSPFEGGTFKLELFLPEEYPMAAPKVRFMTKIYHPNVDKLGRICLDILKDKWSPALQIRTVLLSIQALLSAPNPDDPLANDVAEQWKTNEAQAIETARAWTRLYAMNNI", "assay_type": "functional"}, "[9]": {"assay": "microbe, parasite or virus in culture", "assay_type": "functional", "conditions": "Mycobacterium tuberculosis"}, "[10]": {"assay": "Luminescence Cell-Based Dose Retest to Confirm Inhibitors of Cancer Stem Cells. [Related pubchem assays (depositor defined):AID2717, AID2721]", "assay_type": "functional", "conditions": "Homo sapiens"}, "[11]": {"test_system": "HEK293", "assay": "cells", "assay_type": "functional, cell-based", "conditions": "Homo sapiens"}, "[12]": {"molecular_target": "T2, Oxysterols receptor LXR-beta (Homo sapiens, UniProt P55055)", "T2 sequence (P55055 whole entry)": "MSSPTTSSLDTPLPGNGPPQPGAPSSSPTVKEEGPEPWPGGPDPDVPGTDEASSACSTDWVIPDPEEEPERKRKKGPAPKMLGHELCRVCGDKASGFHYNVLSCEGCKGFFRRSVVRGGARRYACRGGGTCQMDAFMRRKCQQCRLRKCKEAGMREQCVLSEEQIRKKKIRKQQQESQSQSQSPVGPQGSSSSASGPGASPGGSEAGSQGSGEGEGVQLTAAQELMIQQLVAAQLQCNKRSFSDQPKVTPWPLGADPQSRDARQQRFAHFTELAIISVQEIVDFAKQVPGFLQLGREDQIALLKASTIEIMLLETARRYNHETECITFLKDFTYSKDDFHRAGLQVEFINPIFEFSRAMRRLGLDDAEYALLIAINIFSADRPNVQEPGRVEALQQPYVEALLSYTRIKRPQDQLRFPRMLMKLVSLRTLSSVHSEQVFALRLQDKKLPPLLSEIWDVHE", "assay_type": "functional, cell-based"}, "[13]": {"molecular_target": "T3, Nuclear receptor subfamily 0 group B member 1 (Homo sapiens, UniProt P51843)", "T3 sequence (P51843 whole entry)": "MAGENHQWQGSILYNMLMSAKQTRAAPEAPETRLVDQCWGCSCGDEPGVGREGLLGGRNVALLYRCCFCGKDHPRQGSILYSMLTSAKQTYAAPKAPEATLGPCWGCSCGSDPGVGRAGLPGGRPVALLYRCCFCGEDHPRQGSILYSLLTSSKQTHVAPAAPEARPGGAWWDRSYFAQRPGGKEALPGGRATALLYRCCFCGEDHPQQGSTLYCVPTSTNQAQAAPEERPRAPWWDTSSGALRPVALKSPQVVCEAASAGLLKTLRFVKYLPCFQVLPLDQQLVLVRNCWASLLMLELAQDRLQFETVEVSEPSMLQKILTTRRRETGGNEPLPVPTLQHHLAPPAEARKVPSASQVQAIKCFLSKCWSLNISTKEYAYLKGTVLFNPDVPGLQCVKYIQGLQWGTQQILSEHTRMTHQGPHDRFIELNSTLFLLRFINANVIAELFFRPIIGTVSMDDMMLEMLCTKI", "assay": "Luminescence-based cell-based high throughput dose response assay for inhibitors of the orphan nuclear receptor subfamily 0, group B, member 1 (DAX1; NR0B1). [Related pubchem assays (depositor defined):AID504766, AID504790]", "assay_type": "functional"}, "[14]": {"molecular_target": "T4, Streptokinase A (Streptococcus pyogenes serotype M1, UniProt P10520)", "T4 sequence (P10520 whole entry)": "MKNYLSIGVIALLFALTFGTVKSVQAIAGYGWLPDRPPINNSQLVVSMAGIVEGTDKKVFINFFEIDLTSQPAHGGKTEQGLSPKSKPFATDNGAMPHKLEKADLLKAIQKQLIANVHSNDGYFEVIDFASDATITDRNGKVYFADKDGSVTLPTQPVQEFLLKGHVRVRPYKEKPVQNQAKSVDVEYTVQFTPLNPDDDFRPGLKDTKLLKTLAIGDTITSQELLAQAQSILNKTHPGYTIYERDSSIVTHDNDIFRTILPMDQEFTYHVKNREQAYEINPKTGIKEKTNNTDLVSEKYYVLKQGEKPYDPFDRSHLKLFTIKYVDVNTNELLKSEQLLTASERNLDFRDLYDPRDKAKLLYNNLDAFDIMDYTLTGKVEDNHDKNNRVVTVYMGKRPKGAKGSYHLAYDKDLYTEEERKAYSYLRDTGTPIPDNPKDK", "assay": "S. pyogenes streptokinase expression inhibitors, potency, dose response, plasminogen activation absorbance, OD405 (AID 1914);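 note: secreted streptokinase activity via plasminogen activation per viability signal from cell pellet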", "assay_type": "functional, Streptococcus pyogenes M1 GAS"}, "[15]": {"assay": "HEK293T cytotoxicity, dose response, cytotoxicity control for miR-122 modulator project, cell-based, activator set, cherry-pick (AID 720690);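 note: HEK293T human cells scored for general mammalian cytotoxicity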", "assay_type": "functional"}, "[16]": {"test_system": "Streptococcus", "assay": "Group A Streptococcus viability loss, dose response, counter-screen for streptokinase expression inhibitor project, luminescence, BacTiterGlo (AID 1915);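 note: potency for reduction of bacterial viability or growth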", "assay_type": "functional, organism-based"}, "[17]": {"assay": "miR-122 activators in hepatoma reporter cells, dose response, cell-based, Huh7 psiCHECK-miR122, Renilla luciferase, cherry-picked (AID 651956);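 note: huh7 hepatoma cells stably carrying a psiCHECK-2 miR-122 sensor plasmid; renilla luciferase signal reporting endogenous miR-122 activity after 48 h compound exposure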", "assay_type": "functional"}, "[18]": {"assay": "cytotoxicity toward NIH3T3 fibroblasts, dose response, counter-screen, cell-based, ATP luminescence, mouse fibroblasts (AID 2010);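 note: cells exposed to compound for about 90 hours before reading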", "assay_type": "functional"}, "[19]": {"assay": "inhibitors of intracellular T. cruzi replication, confirmation, NIH3T3 host cells, beta-gal luminescence (AID 2044);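 note: luminescent beta-galactosidase reporter signal from transgenic T. cruzi replicating inside host cells; inhibitors lower the luminescence signal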", "assay_type": "functional, cell-based"}, "[20]": {"test_system": "Streptococcus sp. 'group A'", "assay": "growth inhibition of control SK(-) GAS strain, dose response, counter-screen for streptokinase expression inhibitor project, luminescence, kanamycin, BacTiterGlo, confirmation (AID 1900)", "assay_type": "functional, organism-based"}}, "note": "Activity calls are given as the source filed them.", "data": [{"smiles": "CC(C)N1C[C@H](C)[C@@H](CN(C)Cc2ccc(Cl)cc2)Oc2c(cccc2-c2nnn(-c3ccncc3)n2)C1=O", "values": [{"measurement": "AC50", "setting": "[1]", "value": "0.12 µM (active)"}]}, {"smiles": "C[C@@H]1CN([C@H](C)CO)C(=O)c2cc(NC(=O)Nc3ccccc3)ccc2O[C@@H](C)CCCCO[C@@H]1CN(C)Cc1ccc(C(F)(F)F)cc1", "values": [{"measurement": "AC50", "setting": "[2]", "value": "6.35 µM (active)"}, {"measurement": "AC50", "setting": "[3]", "value": "61.8 µM (active)"}, {"measurement": "AC50", "setting": "[4]", "value": "28.6 µM (active)"}, {"measurement": "AC50", "setting": "[5]", "value": "51.4 µM (active)"}]}, {"smiles": "CCCn1c2c(c(=N)c3c1CCC3)CCCC2", "values": [{"measurement": "IC50", "setting": "[6]", "value": "37 µM (inactive)"}]}, {"smiles": "CC(=O)Nc1cc(-c2ccc(F)cc2)cn2c(-c3ccc(F)c(Cl)c3)cnc12", "values": [{"measurement": "EC50", "setting": "[7]", "value": "> 89.2 µM (inactive)"}]}, {"smiles": "CN(C)CCOc1ccc(-c2c(-c3ccsc3)sc3ccccc23)cc1", "values": [{"measurement": "IC50", "setting": "[8]", "value": "> 20 µM (inactive)"}, {"measurement": "CC50", "setting": "[9]", "value": "11.3 µM (active)"}, {"measurement": "EC50", "setting": "[7]", "value": "> 89.2 µM (inactive)"}, {"measurement": "AC50", "setting": "[10]", "value": "3.47 µM (active)"}]}, {"smiles": "N#C/C(=N\\Nc1ccc(Cl)cc1)C(=N)N1CCCCCC1", "values": [{"measurement": "IC50", "setting": "[11]", "value": "> 0.833 µM (active)"}, {"measurement": "EC50", "setting": "[12]", "value": "> 67.5 µM (inactive)"}, {"measurement": "IC50", "setting": "[13]", "value": "> 67.5 µM (inactive)"}]}, {"smiles": "O=C(Nc1nc(-c2cccs2)cs1)c1cccc(S(=O)(=O)N2CCCCCC2)c1", "values": [{"measurement": "IC50", "setting": "[6]", "value": "19.2 µM (active)"}]}, {"smiles": "COc1ccc(-c2cc(C3CCN(c4ccc(C(C)=O)cc4[N+](=O)[O-])CC3)[nH]n2)cc1", "values": [{"measurement": "EC50", "setting": "[14]", "value": "> 150 µM (not active)"}, {"measurement": "AC50", "setting": "[15]", "value": "17.6 µM (active)"}, {"measurement": "EC50", "setting": "[16]", "value": "24.3 µM (active)"}, {"measurement": "AC50", "setting": "[17]", "value": "23 µM (active)"}, {"measurement": "EC50", "setting": "[18]", "value": "> 60 µM (not active)"}, {"measurement": "EC50", "setting": "[19]", "value": "1.87 µM (active)"}, {"measurement": "EC50", "setting": "[20]", "value": "2.74 µM (active)"}, {"measurement": "AC50", "setting": "[10]", "value": "2.46 µM (active)"}]}]}
